Laboratory results published in paper PMC5874133 (Science immunology, 2018).

Tested on: ZnT8_186–194-reactive CD8^+ T-cell clones
Format: cell-based, human
Details: MMr co-staining (Fig. 7D) and in-vitro recall (Fig. 7E); clones D222D 2, D349D 178B9, H017N A1, H328C 9C8

## KAANIVLTV [B. stercoris mimotope]
  ZnT8_186–194-reactive clones cross-recognizing the mimotope: 1 of 4
